From patent US9765105B2, “Macrolide compound” (Pulike Biological Engineering, Inc., priority 2013, dated 2017) come the findings set out here.

Assay in all cases: in vitro susceptibility, MIC by mini broth dilution
Type in all cases: cell-based
A general note: Dilution methods test growth across graded concentrations, often in twofold steps.

In assay [1] the test system is Actinobacillus pleuropneumoniae CVCC262. The settings on record: strain CVCC262. The protocol: (§1) in vitro tests of susceptibility of the compounds according to the present disclosure against bacterial strains commonly used in laboratories. In accordance with the Performance Standards for Antimicrobial Disk Susceptibility Tests: Approved Standard published by the US National Committee for Clinical Laboratory Standards, the antibacterial activities of compounds prepared according to examples 5 to 187 were tested. The MICs (minimum inhibitory concentration) of the medicaments prepared according to the examples on the following bacterial strains were measured through mini broth dilution technique. Staphylococcus aureus CVCC26003, Streptococcus equines CVCC556. Actinobacillus pleuropneumoniae CVCC262, Haemophilus parasuis, and Pasteurella multocida CVCC399, which were purchased from the Control Institute of Veterinary Bioproducts and Pharmaceuticals, China. 4.1.2 Culture Media for the Rest Four Bacterial Strains. Liquid culture medium: […] Solid culture medium: […] The strains were taken out of a refrigerator at −20° C. to be revived, and were spreaded by streaking on the solid culture medium with an inoculating loop. The inoculated culture medium was cultured at 35° C. in a constant temperature incubator for 20 h. […] were selected from a well-grown culture plate and streaked on the solid culture medium. The inoculated culture medium was cultured at 35° C. in the constant temperature incubator for 20 h. […] A 96-well plate was used, and 100 μl of DMSO was added into each of wells 2 to 11, and 200 μl of ready-prepared medicament solution was added into the 1st well, 100 μl of the medicament solution was extracted from the 1st well and added into the 2nd well. Double dilution was performed until the 11th well, thereby forming 11 gradients. In this case, compound of parent plate was prepared. 3 μl of double diluted medicament solution was extracted with a 12-channel pipettor and added into wells 1-11 of a new disposable 96-well culture plate. The 12th well thereof is a control well. For each medicament, there are two adjacent rows which are parallel. The transferred compound plate was reserved for later use. […] The dilution ratio was recorded, and the bacterial liquid for the tests was diluted according to the recorded dilution ratio. Subsequently, the bacterial suspension and the liquid culture medium were diluted in the proportion of 1:200. The diluted solution was reserved for later use.

The subject of a further assay is Haemophilus parasuis. The protocol:
as §1

The subject of assay [2] is Streptococcus equines CVCC556. The settings on record: strain CVCC556. The protocol:
as §1

Assay [3] deals with Pasteurella multocida CVCC399. The settings on record: strain CVCC399. The protocol:
as §1

For assay [4], the system named is Staphylococcus aureus CVCC26003. The settings on record: strain CVCC26003. The protocol: in vitro tests of susceptibility of the compounds according to the present disclosure against bacterial strains commonly used in laboratories. In accordance with the Performance Standards for Antimicrobial Disk Susceptibility Tests: Approved Standard published by the US National Committee for Clinical Laboratory Standards, the antibacterial activities of compounds prepared according to examples 5 to 187 were tested. The MICs (minimum inhibitory concentration) of the medicaments prepared according to the examples on the following bacterial strains were measured through mini broth dilution technique. Staphylococcus aureus CVCC26003, Streptococcus equines CVCC556. Actinobacillus pleuropneumoniae CVCC262, Haemophilus parasuis, and Pasteurella multocida CVCC399, which were purchased from the Control Institute of Veterinary Bioproducts and Pharmaceuticals, China. 4.1.1 Culture Medium for Staphylococcus aureus CVCC26003 Liquid culture medium: CAMHB. […] Solid culture medium: NINA prepared according to the specification of the final product. The strains were taken out of a refrigerator at −20° C. to be revived, and were spreaded by streaking on the solid culture medium with an inoculating loop. The inoculated culture medium was cultured at 35° C. in a constant temperature incubator for 20 h. […] were selected from a well-grown culture plate and streaked on the solid culture medium. The inoculated culture medium was cultured at 35° C. in the constant temperature incubator for 20 h. […] A 96-well plate was used, and 100 μl of DMSO was added into each of wells 2 to 11, and 200 μl of ready-prepared medicament solution was added into the 1st well, 100 μl of the medicament solution was extracted from the 1st well and added into the 2nd well. Double dilution was performed until the 11th well, thereby forming 11 gradients. In this case, compound of parent plate was prepared. 3 μl of double diluted medicament solution was extracted with a 12-channel pipettor and added into wells 1-11 of a new disposable 96-well culture plate. The 12th well thereof is a control well. For each medicament, there are two adjacent rows which are parallel. The transferred compound plate was reserved for later use. […] The dilution ratio was recorded, and the bacterial liquid for the tests was diluted according to the recorded dilution ratio. Subsequently, the bacterial suspension and the liquid culture medium were diluted in the proportion of 1:200. The diluted solution was reserved for later use.

For the compound `CC[C@H]1OC(=O)[C@H](C)[C@@H](O[C@H]2C[C@@](C)(OC)[C@](O)(CNCCNC)[C@H](C)O2)[C@H](C)[C@@H](O[C@@H]2O[C@H](C)C[C@H](N(C)C)[C@H]2O)[C@](C)(O)C[C@@H](C)NC[C@H](C)[C@@H](O)[C@]1(C)O` [syzx-29], in assay [1], the “MIC values, Actinobacillus pleuropneumoniae CVCC262” value was 16 ug/mi. Moreover, the “MIC values, Haemophilus parasuis” value against Haemophilus parasuis is reported as 0.5 ug/mi. Moreover, the “MIC values, Streptococcus equines CVCC556” value in assay [2] stood at 0.5 ug/mi. In assay [3], the “MIC values, Pasteurella multocida CVCC399” value was 2 ug/mi. In addition, the “MIC values, Staphylococcus aureus CVCC26003” value in assay [4] stood at 1 ug/mi.

Take `CC[C@H]1OC(=O)[C@H](C)[C@@H](O[C@H]2C[C@@](C)(OC)[C@](O)(CNCc3ccc(F)cc3F)[C@H](C)O2)[C@H](C)[C@@H](O[C@@H]2O[C@H](C)C[C@H](N(C)C)[C@H]2O)[C@](C)(O)C[C@@H](C)NC[C@H](C)[C@@H](O)[C@]1(C)O` [syzx-31]: in assay [1], the “MIC values, Actinobacillus pleuropneumoniae CVCC262” value was 1 ug/mi. In addition, the “MIC values, Haemophilus parasuis” value in the assay on Haemophilus parasuis is reported as “≦0.25 ug/mi”. Besides, in assay [2], the “MIC values, Streptococcus equines CVCC556” value is given as “≦0.25 ug/mi”. In addition, the “MIC values, Pasteurella multocida CVCC399” value in assay [3] is given as “≦0.25 ug/mi”. Besides, the “MIC values, Staphylococcus aureus CVCC26003” value in assay [4] is reported as “≦0.25 ug/mi”.

For `CC[C@H]1OC(=O)[C@H](C)[C@@H](O[C@H]2C[C@@](C)(OC)[C@](O)(CNc3ccc(Cl)nn3)[C@H](C)O2)[C@H](C)[C@@H](O[C@@H]2O[C@H](C)C[C@H](N(C)C)[C@H]2O)[C@](C)(O)C[C@@H](C)NC[C@H](C)[C@@H](O)[C@]1(C)O` [syzx-32, (2R,3S,4R,5S,8R,10R,11R,12S,13S,14R)-13-[(2,6-dideoxy-3-C-methyl-3-O-methyl-4-C-[(6-chloro-pyridazin-3-yl-amino)-methyl]-α-L-ribopyranosyl)oxy]-2-ethyl-3,4,10-trihydroxy-3,5,8,10,12,14-hexamethyl-11-[[3,4,6-trideoxy-3-(dimethylamino)-β-D-xylo-hexopyranosy]oxy]-1-oxa-7-azacyclopentadecan-15-one], the “MIC values, Actinobacillus pleuropneumoniae CVCC262” value in assay [1] is on record as 0.5 ug/mi. Further, the “MIC values, Haemophilus parasuis” value in the assay on Haemophilus parasuis is recorded as 0.25 ug/mi. In assay [2], the “MIC values, Streptococcus equines CVCC556” value amounted to 0.25 ug/mi. Further, the “MIC values, Pasteurella multocida CVCC399” value in assay [3] is given as 1 ug/mi. Also, the “MIC values, Staphylococcus aureus CVCC26003” value in assay [4] was 0.5 ug/mi.

For `CC[C@H]1OC(=O)[C@H](C)[C@@H](O[C@H]2C[C@@](C)(OC)[C@](O)(CNC(C)CCc3ccccc3)[C@H](C)O2)[C@H](C)[C@@H](O[C@@H]2O[C@H](C)C[C@H](N(C)C)[C@H]2O)[C@](C)(O)C[C@@H](C)NC[C@H](C)[C@@H](O)[C@]1(C)O` (stereo partly drawn) [syzx-34, (2R,3S,4R,5S,8R,10R,11R,12S,13S,14R)-13-[(2,6-dideoxy-3-C-methyl-3-O-methyl-4-C-[[(1-methyl-3-phenyl)propyl-amino]-methyl]-α-L-ribopyranosyl)oxy]-2-ethyl-3,4,10-trihydroxy-3,5,8,10,12,14-hexamethyl-11-[[3,4,6-trideoxy-3-(dimethylamino)-β-D-xylo-hexopyranosy]oxy]-1-oxa-7-azacyclopentadecan-15-one], in assay [1], the “MIC values, Actinobacillus pleuropneumoniae CVCC262” value came to 8 ug/mi. Besides, the “MIC values, Haemophilus parasuis” value with Haemophilus parasuis was 4 ug/mi. Also, in assay [2], the “MIC values, Streptococcus equines CVCC556” value is 0.5 ug/mi. Besides, the “MIC values, Pasteurella multocida CVCC399” value in assay [3] came out at 16 ug/mi. Besides, the “MIC values, Staphylococcus aureus CVCC26003” value in assay [4] is reported as 8 ug/mi.

As for `CC[C@H]1OC(=O)[C@H](C)[C@@H](O[C@H]2C[C@@](C)(OC)[C@](O)(CNC(=O)C(F)(F)F)[C@H](C)O2)[C@H](C)[C@@H](O[C@@H]2O[C@H](C)C[C@H](N(C)C)[C@H]2O)[C@](C)(O)C[C@@H](C)NC[C@H](C)[C@@H](O)[C@]1(C)O` [syzx-37, (2R,3S,4R,5S,8R,10R,11R,12S,13S,14R)-13-[(2,6-dideoxy-3-C-methyl-3-O-methyl-4-C-[[2,2,2-trifluoroacetyl-amino]-methyl]-α-L-ribopyranosyl)oxy]-2-ethyl-3,4,10-trihydroxy-3,5,8,10,12,14-hexamethyl-11-[[3,4,6-trideoxy-3-(dimethylamino)-β-D-xylo-hexopyranosy]oxy]-1-oxa-7-azacyclopentadecan-15-one], the “MIC values, Actinobacillus pleuropneumoniae CVCC262” value in assay [1] amounted to 32 ug/mi. Also, in the assay with Haemophilus parasuis, the “MIC values, Haemophilus parasuis” value stood at 0.5 ug/mi. The “MIC values, Streptococcus equines CVCC556” value in assay [2] is “≦0.25 ug/mi”. Also, the “MIC values, Pasteurella multocida CVCC399” value in assay [3] is given as 1 ug/mi. Besides, the “MIC values, Staphylococcus aureus CVCC26003” value in assay [4] amounted to 0.5 ug/mi.

With `CC[C@H]1OC(=O)[C@H](C)[C@@H](O[C@H]2C[C@@](C)(OC)[C@](O)(CNc3ccnc(Cl)c3)[C@H](C)O2)[C@H](C)[C@@H](O[C@@H]2O[C@H](C)C[C@H](N(C)C)[C@H]2O)[C@](C)(O)C[C@@H](C)NC[C@H](C)[C@@H](O)[C@]1(C)O` [syzx-38], the “MIC values, Actinobacillus pleuropneumoniae CVCC262” value in assay [1] came to 32 ug/mi. In addition, the “MIC values, Haemophilus parasuis” value in the assay on Haemophilus parasuis was found to be 0.5 ug/mi. The “MIC values, Streptococcus equines CVCC556” value in assay [2] came out at 0.5 ug/mi. In assay [3], the “MIC values, Pasteurella multocida CVCC399” value came to 0.5 ug/mi. For the same compound, in assay [4], the “MIC values, Staphylococcus aureus CVCC26003” value is reported as 1 ug/mi.

On to `CCC1OC(=O)C(C)C(OC2CC(C)(OC)C(O)(CNCNCc3ccc(C=O)cc3)C(C)O2)C(C)C(OC2OC(C)CC(N(C)C)C2O)C(C)(O)CC(C)NCC(C)C(O)C1(C)O` [syzx-39, (2R,3S,4R,5S,8R,10R,11R,12S,13S,14R)-13-[(2,6-dideoxy-3-C-methyl-3-O-methyl-4-C-[[[(4-formyl-benzyl-amino)-methyl]amino]-methyl]-α-L-ribopyranosyl)oxy]-2-ethyl-3,4,10-trihydroxy-3,5,8,10,12,14-hexamethyl-11-[[3,4,6-trideoxy-3-(dimethylamino)-β-D-xylo-hexopyranosy]oxy]-1-oxa-7-azacyclopentadecan-15-one], for which the “MIC values, Actinobacillus pleuropneumoniae CVCC262” value in assay [1] is 0.25 ug/mi. Also, in the assay on Haemophilus parasuis, the “MIC values, Haemophilus parasuis” value stood at 0.25 ug/mi. Further, the “MIC values, Streptococcus equines CVCC556” value in assay [2] came out at 0.5 ug/mi. Moreover, the “MIC values, Pasteurella multocida CVCC399” value in assay [3] is recorded as 0.5 ug/mi. Besides, the “MIC values, Staphylococcus aureus CVCC26003” value in assay [4] stood at 0.25 ug/mi.

Regarding `C#CCNC[C@]1(O)[C@H](C)O[C@@H](O[C@H]2[C@H](C)[C@@H](O[C@@H]3O[C@H](C)C[C@H](N(C)C)[C@H]3O)[C@](C)(O)C[C@@H](C)NC[C@H](C)[C@@H](O)[C@](C)(O)[C@@H](CC)OC(=O)[C@@H]2C)C[C@@]1(C)OC` [syzx-40, (2R,3S,4R,5S,8R,10R,11R,12S,13S,14R)-13-[(2,6-dideoxy-3-C-methyl-3-O-methyl-4-C-[[propargyl-amino]-methyl]-α-L-ribopyranosyl)oxy]-2-ethyl-3,4,10-trihydroxy-3,5,8,10,12,14-hexamethyl-11-[[3,4,6-trideoxy-3-(dimethylamino)-β-D-xylo-hexopyranosy]oxy]-1-oxa-7-azacyclopentadecan-15-one], the “MIC values, Actinobacillus pleuropneumoniae CVCC262” value in assay [1] was 16 ug/mi. Also, the “MIC values, Haemophilus parasuis” value in the assay with Haemophilus parasuis turned out to be 0.5 ug/mi. Further, the “MIC values, Streptococcus equines CVCC556” value in assay [2] is 0.5 ug/mi. Further, the “MIC values, Pasteurella multocida CVCC399” value in assay [3] amounted to 1 ug/mi. Further, the “MIC values, Staphylococcus aureus CVCC26003” value in assay [4] is given as 0.5 ug/mi.
